Source: patent US8207222B2, “Nitric oxide releasing derivatives of paracetamol” (Council of Scientific and Industrial Research, priority 2007, dated 2012)
Several values for one entry are separate records, joined by “and”; a condition that tells them apart may be missing. Identical values can stand only once. Entries after “also recorded” stand apart in the source; their conditions may differ. Marks after values point to notes of the source that are not given here.

Tests used:
[1] = target: T1, cox-2 (ovine) (Ovis aries, UniProt P79208); assay: In vitro cox-2 (ovine) inhibitory assay; type: biochemical; details: prostaglandin quantified by EIA, concentration not given
T1 construct: purchased Cayman Chemical Company, USA
T1 sequence (P79208 17-603): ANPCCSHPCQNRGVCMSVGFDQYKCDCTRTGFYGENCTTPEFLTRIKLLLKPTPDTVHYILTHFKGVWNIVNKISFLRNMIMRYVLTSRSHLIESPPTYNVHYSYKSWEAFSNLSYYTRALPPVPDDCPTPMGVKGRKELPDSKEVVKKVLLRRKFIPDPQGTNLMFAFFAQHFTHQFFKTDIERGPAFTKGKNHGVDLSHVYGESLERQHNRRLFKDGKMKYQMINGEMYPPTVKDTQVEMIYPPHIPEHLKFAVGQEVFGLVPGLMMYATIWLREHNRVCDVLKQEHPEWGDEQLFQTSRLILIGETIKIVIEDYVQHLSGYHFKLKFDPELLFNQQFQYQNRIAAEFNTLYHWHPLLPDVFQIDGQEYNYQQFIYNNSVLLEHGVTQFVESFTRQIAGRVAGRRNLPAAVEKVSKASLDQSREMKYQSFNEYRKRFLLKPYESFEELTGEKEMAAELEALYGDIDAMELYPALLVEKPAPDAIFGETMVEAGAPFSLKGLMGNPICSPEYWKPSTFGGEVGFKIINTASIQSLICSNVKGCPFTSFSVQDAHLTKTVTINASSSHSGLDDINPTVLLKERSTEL
From the text: In vitro cox-2 (ovine) inhibitory assay: The prostaglandin product is quantified via enzyme immunoassay (EIA) using a broadly specific antibody that binds to all major prostaglandin compounds. Assay kit was purchased from Cayman Chemical Company, USA.

[2] = test system: acetic acid induced writhing; assay: acetic acid induced writhing assay (analgesic activity); type: in vivo, Laca mice; details: 100 mg/kg p.o., 30 min prior to i.p. acetic acid, mean ± SEM
Procedure: Animals: Wistar rats (male 150-200 g) of both sex and Laca mice (male, 25-35 g) procured from Central Animal House, Punjab University, Chandigarh, India were used. Animals were housed under standard laboratory conditions and maintained on rat chow, Animals were allowed free access to food and water until used and fasted 24 hr prior to studies. Analgesic activity (Table 2 and FIG. 1 Sheet No. 1 FIG. 3): Analgesic activity was determined by using abdominal writhing assay. Mice were divided into different groups containing 6 animals in each group. Pain can be induced by injection of irritants into the peritoneal cavity of mice. The animals react with a characteristic stretching behaviour which is called writhing. An irritating agent such as phenylquinone or acetic acid can be injected intraperitoneally to mice and the stretching reaction is evaluated. The most commonly used methods for measuring peripheral analgesic activity are the writhing tests in mice. The details of the experiment carried out are mentioned below: Analgesic activity was determined against acetic acid induced writhing assay. Writhing was induced by intraperitoneal (i.p.) injection of freshly prepared acetic acid solution. Mice were per orally (p.o.) administered paracetamol (1) and synthesized NO-releasing derivatives (12 and 13) at a dose of 100 mg/kg, emulsified in 0.5% sodium carboxy methyl cellulose (sodium CMC) vehicle, 30 min prior to i.p. acetic acid (1% w/v in saline pH 2.7, 10 ml/kg, i.p.). Animals were immediately transferred to individual observation chambers and number of writhes (constriction of abdomen, turning of trunk, and extension of hind Limbs) were monitored over the following 20 minutes, beginning 3 min after the injection of acetic acid. At the end of observation period the animals were killed by cervical dislocation and exsaguination. The average number of writhes in each group of drug treated mice was compared with that of the control group and degree of analgesia was expressed as % inhibition calculated from the equation: % Inhibition=(1−Nt/Nc)×100 Where, Nc=number of writhes in control • Nt=number of writhes in drug treated mice

[3] = test system: ALP; type: in vivo; details: 1000 mg/kg; 6 hr after administration, vs basal value; mean ± SEM
Procedure: (§1) Biochemical Assays (Table 3 and FIG. 2 Sheet No. 1 for SGPT(ALT), and Table 4 and FIG. 3 Sheet No. 2 for ALP): Paracetamol was given at a dose of 1000 mg/Kg and an equivalent dose of 1000 mg/Kg of the derivatives 12 and 13 was given p.o. Before administration blood samples of each animal were taken and after 6 hrs the animals were sacrificed to collect blood samples, and the serum was separated out. Measurement of plasma markers of liver Serum Glutamate oxaloacetate transaminase (SGOT) pyruvate transaminase (SGPT) and Alkaline Phosphatase (ALP) were assayed spectrophotometrically using commercially available kits.
(§2) The animals were divided into different groups containing 6-8 animals in each group. Animals were lightly anaesthetized with diethyl ether and blood samples were collected which served as the basal reading of the enzyme to be analyzed. These groups of rats were then treated with paracetamol (1000 mg/Kg, i.p.), and equivalent dose of the test compounds. Control group was treated with an equal volume of vehicle (0.9% w/v sodium chloride containing 20% v/v tween-80). Animals were lightly anesthetized with ethyl ether and blood samples were collected and allowed to coagulate at room temperature for 1 hr, serum was then separated by centrifugation (5,000 rpm for 10 min) at 4° C. and stored at −40.0° C. till estimation. Plasma markers of liver injury were assayed spectrophotometrically using following commercially available kits according to standard laboratory techniques:
(§3) […]. Enzymes like alkaline phosphatase (ALP, EC 3.1.3.1), serum glutamate pyruvate transaminase (SGPT) or alanine aminotransferase (ALT) ([…]) and the total proteins are considered as plasma markers of liver injury. Nitric oxide releasing paracetamol derivatives 12 and 13 were evaluated for their effect on the markers of liver injury like enzymes ALP and SGPT/ALT. The plasma level of these enzymes is found to increase in the case of liver toxicity.

[4] = test system: liver; assay: liver histopathology (haematoxylin and eosin); type: in vivo, mouse; details: 1000 mg/kg, i.p.; H&E stain
From the text: Histopathology (FIG. 5 Sheet No. 3) For liver histopathology, the livers were removed and portions were fixed in 10% buffered formalin (pH 7.4). They were then processed by standard histopathological techniques, stained with Haematoxylin and Eosin (H&E), and examined for morphologic evaluation for liver injury.^21

[5] = test system: SGPT/ALT; assay: plasma marker of liver injury SGPT/ALT, spectrophotometric kit; type: in vivo; details: 1000 mg/kg, 6 hr after administration, vs basal value, mean ± SEM
Procedure: as §1, §2, §3

[6] = test system: carrageenan induced rat paw edema; assay: carrageenan induced rat paw edema model (anti-inflammatory activity); type: in vivo, Wistar rats; details: 100 mg/kg p.o.; for % Increase in paw volume Mean ± SEM 2 hr: 2 hr after carrageenan challenge; for anti-inflammatory activity (in words): 2 hr and 4 hr; for % Increase in paw volume Mean ± SEM 4 hr: 4 hr after carrageenan challenge
From the text: Animals: Wistar rats (male 150-200 g) of both sex and Laca mice (male, 25-35 g) procured from Central Animal House, Punjab University, Chandigarh, India were used. Animals were housed under standard laboratory conditions and maintained on rat chow, Animals were allowed free access to food and water until used and fasted 24 hr prior to studies.
Experimental conditions: Unless otherwise stated, the following conditions were employed in all experiments. The test compounds were suspended in 0.5% carboxymethylcellulose (CMC) and administered per orally (p.o.). Control animals were given the corresponding amount of vehicle (0.5%, CMC).
Anti-inflammatory activity (Table 1): Anti-inflammatory activity was determined by using carrageenan induced rat paw edema model. Rats were divided into different groups and the drugs were administered to each group.
Paw edema in rats (various modifications and various irritants) is the most widely used method for testing acute and subacute inflammation. It is based upon the ability of anti-inflammatory agents to inhibit the edema produced in the hind paw of the rat after injection of a phlogistic agent. Many phlogistic agents (irritants) have been used, such as brewer's yeast, formaldehyde, dextran, egg albumin, kaolin, sulfated polysaccharides like carrageenin or naphthoylheparamine. The volume of the injected paw is measured before and after application of the irritant and the paw volume of the treated animals is compared to the control. The details of the experiment carried out are described below:
The paracetamol (1) and synthesized NO-releasing derivatives (12 and 13) were administered p.o. at a dose of 100 mg/kg, p.o., emulsified in 0.5% sodium carboxy methyl cellulose (0.5% sodium CMC). Anti-inflammatory activity was determined by using carrageenan induced rat paw edema model. Rats were divided into different groups and the drugs/derivatives were administered to each group. Acute edema was induced in left hind paw of rats by injecting freshly prepared solution of carrageenan (Type IV, 0.1 ml, 1%) under plantar region of left hind paw. In the right paw, saline ([…], 0.9%) was injected, which served as control for comparison. The increase in paw volume was measured by using plethysmometer (water displacement, UGO BASILE, Varese, Italy) at 2 hr and 4 hr after carrageenan challenge. Percentage change (increase) in paw volume was calculated and expressed as the amount of inflammation. % increase in paw volume at any time=(V1−Vr)/Vr×100
Where, V1 Volume of left paw • Vr=Volume of right paw (control)

[7] = in vivo nitric oxide release, serum nitrate/nitrite by Cayman kit; details: for NO serum level: dose of 100 mg/kg body weight, control 182.1±0.68, in µmol/L; for serum nitrate/nitrite concentration: 6 hours after 100 mg/Kg p.o., control 182.1 ± 0.68
Procedure: 100 mg/Kg of the derivatives 12 and 13 was given p.o. After 6 hours the animals were sacrificed to collect blood samples and the serum was separated out to find out the levels of NO. Plasma nitrate/nitrite concentration level was measured by commercially available Cayman Kit.

For CC(=O)Nc1ccc(OCCCCO[N+](=O)[O-])cc1 [Compound 19, N-[4-(4-Nitrooxy-butoxy)-phenyl]-acetamide], the melting point was 92 to 98 °C.

In the case of CC(=O)Nc1ccc(O)cc1 [Compound 1, N-(4-hydroxyphenyl)-acetamide, reference compound], the “cox-2 (ovine) inhibition” value [1] is reported as 24.0%, the “% INHIBITION IN WRITHINGS” value [2] is reported as 45.36 ± 1.34% and the “% INHIBITION IN WRITHINGS” value ([2]; listed as paracetamol (1)) is reported as 45.36±1.34%. The “% INCREASE IN ALP LEVEL” value [3] was 15.75 ± 1.07 %, the “liver damage in histopathology (light microscopy)” value (“liver damage in histopathology” for short) [4] was “ballooning degeneration, sinusoidal decongestion, portal triad inflammation and spoty necrosis in Zone I” and the “% INCREASE IN SGPT/ALT LEVEL” value ([5]; listed as Paracetamol (1)) was 83.11 ± 3.3 %. The “% INCREASE IN SGPT/ALT LEVEL” value ([5]; listed as paracetamol (1)) was “more than 80%”, the “% Increase in paw volume Mean ± SEM 2 hr” value [6] was 38.37 ± 1.26% and the “% Increase in paw volume Mean ± SEM 2 hr” value ([6]; listed as paracetamol) was 38.37±1.26%. The “% Increase in paw volume Mean ± SEM 2 hr” value ([6]; listed as paracetamol (1)) was 38.37±1.26%, the “anti-inflammatory activity (in words)” value [6] was “No significant activity” and the “% Increase in paw volume Mean ± SEM 4 hr” value [6] was 58.92 ± 1.56%. The “% Increase in paw volume Mean ± SEM 4 hr” value ([6]; listed as paracetamol) was 58.92±1.56% and the “% Increase in paw volume Mean ± SEM 4 hr” value ([6]; listed as paracetamol (1)) was 58.92±1.56%.

For CC(=O)Nc1ccc(OCCO[N+](=O)[O-])cc1 [Compound 12, N-[4-(2-Nitrooxy-ethoxy)-phenyl]-acetamide], the “cox-2 (ovine) inhibition” value [1] was 21.0%, the “% INHIBITION IN WRITHINGS” value [2] was 58.35±1.50% and the “% INCREASE IN ALP LEVEL” value [3] was 4.17 ± 0.62 %. The NO serum level [7] was 354.2±2.17, the serum nitrate/nitrite concentration [7] was 354.2 ± 2.17 µmol/L and the “liver damage in histopathology” value [4] was “Mild ballooning degeneration”. The “% INCREASE IN SGPT/ALT LEVEL” value [5] was 27.94 ± 2.7*^,# %, the “% Increase in paw volume Mean ± SEM 2 hr” value [6] was 32.68±1.45% and the “anti-inflammatory activity (in words)” value [6] was “good anti-inflammatory activity”. The “% Increase in paw volume Mean ± SEM 4 hr” value [6] was 26.44±0.10% and 26.44 ± .10%.

With CC(=O)Nc1ccc(OCCCCCO[N+](=O)[O-])cc1 [Compound 13, N-[4-(5-Nitrooxy-pentoxy)-phenyl]-acetamide] the “cox-2 (ovine) inhibition” value [1] was 32.5%, the “% INHIBITION IN WRITHINGS” value [2] was 61.80±1.69% and the “% INCREASE IN ALP LEVEL” value [3] was 2.85 ± 0.83 %. For the same molecule, the NO serum level [7] was 265.4±2.47, the serum nitrate/nitrite concentration [7] was 265.4 ± 2.47 µmol/L and the “liver damage in histopathology” value [4] was “didn't cause any significant damage to the liver; also recorded: no significant damage”. For the same molecule, the “% INCREASE IN SGPT/ALT LEVEL” value [5] was 11.72 ± 1.4*^,# %, the “% Increase in paw volume Mean ± SEM 2 hr” value [6] was 31.15±1.31% and the “% Increase in paw volume Mean ± SEM 4 hr” value [6] was 28.45±1.28%.
